From patent US7294648B2, “Anthranyl derivatives having an anticholecystokinin activity (anti-cck-1), a process for their preparation, and pharmaceutical use thereof” (Rottapharm S.p.A., priority 2002, dated 2007)
Like-named read-outs stand apart in the source and are kept apart here.

What was measured:
CCK-2 receptor [1] = assay: Inhibition of the binding of [125I]-BH-CCK-8 to the cortical membrane of guinea pigs; design: species or system guinea pig; settings: IC50 CCK-2 (guinea pig cortex) / IC50 CCK-1 (rat pancreatic acini, Table 2)
Procedure: (§1) For this purpose binding tests were performed on cerebral cortex of male albino guinea pigs outbred from the Hartley strain, using as marked binder the [^125I]-BH-CCK-8 sulphate, according to the procedure described by Makovec F. [J. Med. Chem. 35, (1992),28].
(§2) The incubation of the cerebral membranes together with the radioactive tracers and the compounds under study was effected on multi-well plates for 120 minutes at 25° C. Each well contained membrane corresponding to about 0.5 mg of proteins/ml and 25 pM of marked binder in a total volume of 250 micro litres. The specific binding was determined as the difference between the binding in the absence and in the presence of CCK-8, 1.10^−6M. At the end of the incubation a rapid filtration of the plate was performed under vacuum and the radioactivity of the individual filters extracted from the wells was measured with a γ-emission counter. The results obtained are shown in Table 3, in which the tested compounds are indicated, the IC50 calculated with the regression method on a set of at least 3 tests for each compound studied and an index derived from the ratio of the affinity obtained for the two types of receptor CCK-2 and CCK-1.

CCK-2 receptor [2] = target: T1, CCK-2 receptor (Cavia porcellus, UniProt H0VZC5); assay: as above; design: species or system guinea pig; settings: 120 minutes at 25° C.; 25 pM marked binder; at least 3 tests
T1 construct: The incubation of the cerebral membranes together with the radioactive tracers and the compounds under study; from tissue; host or cells: cerebral cortex membranes of male albino Hartley guinea pigs
T1 sequence (H0VZC5 1-426): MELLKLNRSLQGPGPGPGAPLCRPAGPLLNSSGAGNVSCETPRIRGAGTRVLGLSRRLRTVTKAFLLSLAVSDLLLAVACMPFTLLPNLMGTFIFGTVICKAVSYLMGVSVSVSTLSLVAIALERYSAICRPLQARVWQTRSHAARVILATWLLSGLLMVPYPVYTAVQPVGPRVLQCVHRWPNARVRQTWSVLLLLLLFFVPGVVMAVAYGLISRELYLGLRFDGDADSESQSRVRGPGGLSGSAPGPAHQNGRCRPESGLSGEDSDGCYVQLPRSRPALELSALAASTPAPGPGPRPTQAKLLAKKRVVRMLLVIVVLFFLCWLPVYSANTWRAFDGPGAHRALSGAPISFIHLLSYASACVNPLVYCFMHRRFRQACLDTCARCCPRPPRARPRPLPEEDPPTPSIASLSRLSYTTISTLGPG
Procedure: as §1, §2

[3] = target: T2, CCK-1 (guinea pig gall bladder) (Cavia porcellus, UniProt Q63931); assay: Inhibition of the in vitro CCK-8 induced contraction of guinea pig gall bladder; assay type: cell-based; settings: CCK-8 5 ng/ml; average of at least two experiments, 6-8 concentrations
T2 construct: A guinea pig gall bladder stimulated in vitro by CCK-8; from tissue; host or cells: isolated guinea pig gall bladder
T2 sequence (Q63931 1-430): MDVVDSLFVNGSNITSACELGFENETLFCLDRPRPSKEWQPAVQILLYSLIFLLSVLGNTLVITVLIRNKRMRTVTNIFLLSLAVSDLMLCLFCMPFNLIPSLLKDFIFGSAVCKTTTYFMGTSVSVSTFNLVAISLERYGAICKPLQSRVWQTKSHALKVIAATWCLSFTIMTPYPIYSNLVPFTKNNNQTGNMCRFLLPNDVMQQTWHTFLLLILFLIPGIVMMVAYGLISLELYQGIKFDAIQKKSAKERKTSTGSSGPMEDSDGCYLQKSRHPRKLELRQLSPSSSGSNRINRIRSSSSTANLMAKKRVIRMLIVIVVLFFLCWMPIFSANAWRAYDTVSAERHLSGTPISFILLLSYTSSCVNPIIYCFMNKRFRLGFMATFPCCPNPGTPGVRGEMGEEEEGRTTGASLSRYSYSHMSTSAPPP
Excerpt: A guinea pig gall bladder stimulated in vitro by CCK-8 according to the method described by Makovec et al. was used as an experimental model. [Arzneim. Forsch. Drug Res. 35 (7), 1048 (1985)]. The results thus obtained are illustrated in the following Table 4 in which the values of IC50 (moles/litre) are reported.

CCK-1 receptors = target: T3, CCK-1 receptors (Rattus norvegicus, UniProt P30551); assay: Inhibition of binding of [125I]-BH-CCK-8 to isolated rat pancreatic acini; settings: for affinity for the CCK-1 receptors of the pancreatic acini of rat, in words: summary of Table 2
T3 construct: The pancreatic acini obtained from the outbred male rat pancreas of the Sprague Dawley strain; from tissue; host or cells: isolated pancreatic acini of male Sprague Dawley rats
T3 sequence (P30551 1-444): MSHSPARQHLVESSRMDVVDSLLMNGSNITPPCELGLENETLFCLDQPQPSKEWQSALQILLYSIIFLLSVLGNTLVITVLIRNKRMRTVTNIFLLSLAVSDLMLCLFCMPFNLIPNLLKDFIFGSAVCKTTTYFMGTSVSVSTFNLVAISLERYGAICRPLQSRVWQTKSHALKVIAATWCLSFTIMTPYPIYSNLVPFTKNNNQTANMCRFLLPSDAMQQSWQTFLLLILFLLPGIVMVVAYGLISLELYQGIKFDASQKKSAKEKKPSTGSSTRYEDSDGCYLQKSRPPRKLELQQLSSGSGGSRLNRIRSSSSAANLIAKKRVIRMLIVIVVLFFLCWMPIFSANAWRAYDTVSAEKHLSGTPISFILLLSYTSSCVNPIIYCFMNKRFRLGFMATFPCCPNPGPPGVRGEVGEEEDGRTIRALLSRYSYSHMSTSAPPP
Procedure: The pancreatic acini obtained from the outbred male rat pancreas of the Sprague Dawley strain, were incubated in the presence of radioactive tracers and the compound studied for 30 minutes at 37° C. After having discarded the supernatant, the radioactivity associated with the pellet was determined with a liquid scintillator. The specific binding was determined as the difference between the binding in the absence and in the presence of CCK-8, 1.10^−6M. […] The values of IC50 reported were calculated with the […] of a set of at least 3 experiences for each compound studied.

[4] = 30 minutes at 37° C., at least 3 experiments, read-out: IC50, inhibition of binding of [125I]-BH-CCK-8 to isolated rat pancreatic acini

Row | Compound | index derived from the ratio of the affinity obtained for the two types of receptor CCK-2 and CCK-1 (CCK-2 receptor [1]) | IC50 (CCK-2 receptor [2]) | IC50 [3] | affinity for the CCK-1 receptors of the pancreatic acini of rat, in words (CCK-1 receptors) | IC50 (CCK-1 receptors; [4]) | IC50 (CCK-1 receptors)
1 | O=C(Nc1ccccc1C(=O)NC(CCc1ccccc1)C(=O)O)c1cc2ccccc2[nH]1 (centres unmarked) [Compound 20] | 158.6 | 2220 nM | 35 nM |  |  | 14 nM
2 | O=C(Nc1ccccc1C(=O)N[C@H](CCc1ccccc1)C(=O)O)c1cc2ccccc2[nH]1 [Compound 21] | 422.2 | 3800 nM | 20 nM | nanomolar level |  | 9 nM
3 | O=C(Nc1ccccc1C(=O)NC(CCc1ccccc1)C(=O)O)c1cc2cc(F)ccc2[nH]1 (centres unmarked) [Compound 23] | 1542.9 | 10800 nM | 15 nM | nanomolar level | 7 nM | 
4 | Cc1ccccc1CCC(NC(=O)c1ccccc1NC(=O)c1cc2cc(F)ccc2[nH]1)C(=O)O (centres unmarked) [Compound 26] | 572.2 | 5150 nM | 43 nM | nanomolar level | 9 nM | 

Further lines, with some results ahead:

Row | index derived from the ratio of the affinity obtained for the two types of receptor CCK-2 and CCK-1 (CCK-2 receptor [1]) | IC50 (CCK-2 receptor [2]) | IC50 [3] | affinity for the CCK-1 receptors of the pancreatic acini of rat, in words (CCK-1 receptors) | IC50 (CCK-1 receptors; [4]) | Compound | IC50 (CCK-1 receptors)
5 | >4286 | > 30000 nM | 8 nM | nanomolar level | 7 nM | Cc1ccccc1CCC(NC(=O)c1ccccc1NC(=O)c1cc2ccccc2[nH]1)C(=O)O (centres unmarked) [Compound 25] | 
6 | 437.5 | 3500 nM | 30 nM | nanomolar level | 8 nM | COc1ccccc1CCC(NC(=O)c1ccccc1NC(=O)c1cc2ccccc2[nH]1)C(=O)O (centres unmarked) [Compound 30] | 
